# Results reported in US6737383B1, “Herbicidal oxadiazolidines” (priority 1999, dated 2004).
# Experiments:
# [1] = tested on: rape; assay: Test B pre/postemergence rape; type: in vivo, Brassica napus
# In short: (§1)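 Herbicidal effect was estimated by eye on a ten-point control scale after plants spent twelve to sixteen days in a greenhouse following soil or foliar treatment. Foliar sprays targeted plants at one to four leaves; all doses were formulated in a non-phytotoxic solvent with surfactant.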
# [2] = tested on: sugar beet; assay: Test B pre/postemergence sugar beet; type: in vivo, Beta vulgaris
# In short: as §1
# [3] = tested on: pigweed; assay: Test B pre/postemergence pigweed; type: in vivo, Amaranthus retroflexus
# In short: as §1
# [4] = tested on: wheat; assay: Test B pre/postemergence wheat; type: in vivo, Triticum aestivum
# In short: as §1
# [5] = tested on: blackgrass; assay: Test B pre/postemergence blackgrass; type: in vivo, Alopecurus myosuroides
# In short: as §1
# [6] = tested on: bedstraw; assay: Test B pre/postemergence bedstraw; type: in vivo, Galium aparine
# In short: as §1
# [7] = tested on: surinam grass; assay: Test B pre/postemergence surinam grass; type: in vivo, Brachiaria decumbens
# In short: as §1
# [8] = tested on: crabgrass; assay: Test B pre/postemergence crabgrass; type: in vivo, Digitaria sanguinalis
# In short: as §1
# [9] = tested on: morningglory; assay: Test B pre/postemergence morningglory; type: in vivo, Ipomoea hederacea
# In short: as §1
# [10] = tested on: wild oat; assay: Test B pre/postemergence wild oat; type: in vivo, Avena fatua
# In short: as §1
# [11] = tested on: soybean; assay: Test B pre/postemergence soybean; type: in vivo, Glycine max
# In short: as §1
# [12] = tested on: purple nutsedge; assay: Test B pre/postemergence purple nutsedge; type: in vivo, Cyperus rotundus
# In short: as §1
# [13] = tested on: cocklebur; assay: Test B pre/postemergence cocklebur; type: in vivo, Xanthium strumarium
# In short: as §1
# [14] = tested on: corn; assay: Test B pre/postemergence corn; type: in vivo, Zea mays
# In short: as §1
# [15] = tested on: giant foxtail; assay: Test B pre/postemergence giant foxtail; type: in vivo, Setaria faberii
# In short: as §1
# [16] = tested on: velvetleaf; assay: Test B pre/postemergence velvetleaf; type: in vivo, Abutilon theophrasti
# In short: as §1
# [17] = Preemergence, Rate 62 g/ha, scale of 0 to 10 where 0 is no effect and 10 is complete control
# [18] = Preemergence, Rate 250 g/ha, scale of 0 to 10 where 0 is no effect and 10 is complete control
# [19] = Preemergence, Rate 500 g/ha, scale of 0 to 10 where 0 is no effect and 10 is complete control
# [20] = Rate 125 g/ha, Preemergence, scale of 0 to 10 where 0 is no effect and 10 is complete control
# [21] = Rate 500 g/ha, Postemergence, scale 0 to 10, 0 no effect, 10 complete control
# [22] = Rate 62 g/ha, Postemergence, scale of 0 to 10 where 0 is no effect and 10 is complete control
# [23] = Rate 125 g/ha, Postemergence, scale 0 to 10
smiles,measurement,setting,value
CC(C)N(C(=O)n1oc(=O)n(C(C)C(=O)c2ccccc2)c1=O)c1ccc(F)cc1 (stereo not shown) [Compound 260],Rape plant response rating,[1]; [17],0
same,Rape plant response rating,[1]; [18],0
same,"Plant response rating, Rape",[1]; [19],0
same,Rape plant response rating,[1]; [20],0
same,"Plant response rating (0 to 10; 0 is no effect, 10 is complete control), Rape","[1]; Rate 250 g/ha, Postemergence",0
same,Rape plant response rating,[1]; [21],0
same,Sugarbeets plant response rating,[2]; [17],0
same,Sugarbeets plant response rating,[2]; [18],0
same,"Plant response rating, Sugarbeets",[2]; [19],0
same,Sugarbeets plant response rating,[2]; [20],0
same,Sugarbeets plant response rating,[2]; [21],3
same,Redroot pigweed plant response rating,[3]; [17],0
same,Redroot pigweed plant response rating,[3]; [18],4
same,"Plant response rating, Redroot pigweed",[3]; [19],4
same,Redroot pigweed plant response rating,[3]; [20],0
same,"Plant response rating (0 to 10; 0 is no effect, 10 is complete control), Redroot pigweed","[3]; Rate 250 g/ha, Postemergence",3
same,Redroot pigweed plant response rating,[3]; [21],6
same,Wheat plant response rating,[4]; [17],0
same,Wheat plant response rating,[4]; [18],0
same,"Plant response rating, Wheat",[4]; [19],0
same,Wheat plant response rating,[4]; [20],0
same,Wheat plant response rating,[4]; [21],0
same,Blackgrass plant response rating,[5]; [17],0
same,Blackgrass plant response rating,[5]; [18],2
same,"Plant response rating, Blackgrass",[5]; [19],3
same,Blackgrass plant response rating,[5]; [22],0
same,Blackgrass plant response rating,[5]; [23],0
same,Blackgrass plant response rating,[5]; [20],0
same,"Plant response rating (0 to 10; 0 is no effect, 10 is complete control), Blackgrass","[5]; Rate 250 g/ha, Postemergence",0
same,Blackgrass plant response rating,[5]; [21],0
same,Bedstraw plant response rating,[6]; [17],0
same,"Plant response rating, Bedstraw",[6]; [19],5
same,Bedstraw plant response rating,[6]; [22],6
same,Bedstraw plant response rating,[6]; [23],7
same,Bedstraw plant response rating,[6]; [20],0
same,B. signalgrass plant response rating,[7]; [17],0
same,B. signalgrass plant response rating,[7]; [18],0
same,"Plant response rating, B. signalgrass",[7]; [19],3
same,B. signalgrass plant response rating,[7]; [22],0
same,B. signalgrass plant response rating,"[7]; Rate 125 g/ha, Postemergence, scale 0 (no effect) to 10 (complete control)",0
same,B. signalgrass plant response rating,[7]; [20],0
same,"Plant response rating (0 to 10; 0 is no effect, 10 is complete control), B. signalgrass","[7]; Rate 250 g/ha, Postemergence",0
same,B. signalgrass plant response rating,[7]; [21],0
same,Crabgrass plant response rating,[8]; [17],0
same,Crabgrass plant response rating,[8]; [18],6
same,"Plant response rating, Crabgrass",[8]; [19],9
same,Crabgrass plant response rating,[8]; [20],2
same,"Plant response rating (0 to 10; 0 is no effect, 10 is complete control), Crabgrass","[8]; Rate 250 g/ha, Postemergence",0
same,Crabgrass plant response rating,[8]; [21],0
same,Morningglory plant response rating,[9]; [17],0
same,Morningglory plant response rating,[9]; [18],0
same,"Plant response rating, Morningglory",[9]; [19],0
same,Morningglory plant response rating,[9]; [20],0
same,"Plant response rating (0 to 10; 0 is no effect, 10 is complete control), Morningglory","[9]; Rate 250 g/ha, Postemergence",3
same,Morningglory plant response rating,[9]; [21],4
same,Wild oats plant response rating,[10]; [17],0
same,Wild oats plant response rating,[10]; [18],0
same,"Plant response rating, Wild oats",[10]; [19],0
same,Wild oats plant response rating,[10]; [20],0
same,Wild oats plant response rating,[10]; [21],0
same,Soybean plant response rating,[11]; [17],0
same,Soybean plant response rating,[11]; [18],0
same,"Plant response rating, Soybean",[11]; [19],0
same,Soybean plant response rating,[11]; [20],0
same,Soybean plant response rating,[11]; [21],1
same,Nutsedge plant response rating,[12]; [17],0
same,Nutsedge plant response rating,[12]; [18],0
same,Nutsedge plant response rating,[12]; [20],0
same,"Plant response rating (0 to 10; 0 is no effect, 10 is complete control), Nutsedge","[12]; Rate 250 g/ha, Postemergence",0
same,Nutsedge plant response rating,[12]; [21],0
same,Cocklebur plant response rating,[13]; [17],0
same,Cocklebur plant response rating,[13]; [18],0
same,"Plant response rating, Cocklebur",[13]; [19],0
same,Cocklebur plant response rating,[13]; [22],0
same,Cocklebur plant response rating,[13]; [23],0
same,Cocklebur plant response rating,[13]; [20],0
same,"Plant response rating (0 to 10; 0 is no effect, 10 is complete control), Cocklebur","[13]; Rate 250 g/ha, Postemergence",0
same,Cocklebur plant response rating,[13]; [21],0
same,Corn plant response rating,[14]; [17],0
same,Corn plant response rating,[14]; [18],0
same,"Plant response rating, Corn",[14]; [19],0
same,Corn plant response rating,[14]; [22],0
same,Corn plant response rating,[14]; [23],0
same,Corn plant response rating,[14]; [20],0
same,"Plant response rating (0 to 10; 0 is no effect, 10 is complete control), Corn","[14]; Rate 250 g/ha, Postemergence",0
same,Corn plant response rating,[14]; [21],0
same,Giant foxtail plant response rating,[15]; [17],3
same,Giant foxtail plant response rating,[15]; [18],8
same,"Plant response rating, Giant foxtail",[15]; [19],10
same,Giant foxtail plant response rating,[15]; [20],7
same,"Plant response rating (0 to 10; 0 is no effect, 10 is complete control), Giant foxtail","[15]; Rate 250 g/ha, Postemergence",0
same,Giant foxtail plant response rating,[15]; [21],0
same,Velvetleaf plant response rating,[16]; [17],0
same,Velvetleaf plant response rating,[16]; [18],0
same,"Plant response rating, Velvetleaf",[16]; [19],0
same,Velvetleaf plant response rating,[16]; [20],0
same,Velvetleaf plant response rating,[16]; [21],1
